Data reported in US4690930A, “Pyrazolo[4,3-c]quinoline-3-one and imidazo[4,3-c]cinnolin-3-one derivatives and their use as psychotropic agents” (Shionogi & Co., Ltd, priority 1984, dated 1987).

target: benzodiazepine receptor; assay: Binding test to benzodiazepine receptor (inhibition of specific binding of tritium labeled diazepam); parameters: species or system Wistar rats (cerebral cortex); details: 2 nM tritium labeled diazepam, rat cerebral cortex, 0° C., 60 minutes; Ki calculated from IC50
Description: Binding test to benzodiazepine receptor
This test was carried out in the modified method of Moeler & Okada, Science, 198, 849-851 (1977).
Receptor preparation was provided from the cerebral cortex of Wistar rats (male, 11 to 13 weeks age). Inhibitory action of the test compound on the specific binding of tritium labeled diazepam to the receptor was evaluated as follows. 2 nM tritium labeled diazepam and an aqueous solution of the test compound at 5 or 6 concentrations were incubated with the receptor preparation at 0° C. for 60 minutes. The 50% inhibitory concentration (IC50) was measured by the concentration-response curve.
The inhibitory constant (Ki) was calculated according to the following equation, in which Kd is the dissociation constant of the tritium labeled diazepam and L is the concentration of the labeled ligand. [formula]

Q: With `Cc1ccc(-n2nc3c4ccc(Cl)cc4[nH]cc-3c2=O)s1` [Ic1 -11] as the compound, how does the Ki read?
A: Its Ki is 1.11 nM.

Q: For `COc1ccc2[nH]cc3c(=O)n(-c4ccc(C)s4)nc-3c2c1` [Ic1 -7], which Ki is on record?
A: Its Ki is 0.17 nM.

Q: How did the Ki turn out when `Cc1ccc(-n2nc3c4cc(Cl)ccc4[nH]cc-3c2=O)s1` [Ic1 -8] was run?
A: The Ki was 0.31 nM.

Q: How did the Ki turn out when `Cc1ccc2c3nn(-c4csc(C)c4)c(=O)c-3c[nH]c2c1` [Ic2 -8] was run?
A: Its Ki is 1.24 nM.

Q: How did the Ki turn out when `Cc1cc(-n2nc3c4cc(Cl)ccc4[nH]cc-3c2=O)cs1` [Ic2 -6] was run?
A: The Ki was 0.58 nM.

Q: `Cc1csc(-n2nc3c4ccccc4[nH]cc-3c2=O)c1` [Ic1 -12] was tested. Which Ki did it give?
A: The Ki was 0.38 nM.

Q: For `CCCCc1ccc(-n2nc3c4ccccc4[nH]cc-3c2=O)s1` [Ic1 -5], which Ki is on record?
A: The Ki was 1.53 nM.

Q: With `Cc1cc(-n2nc3c4ccccc4[nH]cc-3c2=O)sc1C` [Ic1 -3] as the compound, how does the Ki read?
A: The Ki was 0.63 nM.

Q: `O=c1c2c[nH]c3ccccc3c-2nn1-c1ccsc1` [Ic2 -1, 2-(3-Thienyl)-2,5-dihydro-3H-pyrazolo[4,3-c]quinolin-3-one] was tested. Which Ki did it give?
A: The Ki was 0.29 nM.

Q: `Cc1cc(-n2nc3c4ccc(Cl)cc4[nH]cc-3c2=O)cs1` [Ic2 -9] was tested. Which Ki did it give?
A: Its Ki is 0.96 nM.

Q: How did the Ki turn out when `Cc1ccc(-n2nc3c4cc(F)ccc4[nH]cc-3c2=O)s1` [Ic1 -9] was run?
A: Its Ki is 0.14 nM.

Q: With `Cc1ccc2c3nn(-c4ccc(C)s4)c(=O)c-3c[nH]c2c1` [Ic1 -10] as the compound, how does the Ki read?
A: The Ki was 1.44 nM.

Q: For `Cc1cc(-n2nc3c4cc(F)ccc4[nH]cc-3c2=O)cs1` [Ic2 -7], which Ki is on record?
A: The Ki was 0.17 nM.

Q: How did the Ki turn out when `CCc1ccc(-n2nc3c4ccccc4[nH]cc-3c2=O)s1` [Ic1 -2] was run?
A: The Ki was 1.51 nM.

Q: Which Ki does the source give for `Cc1ccc2[nH]cc3c(=O)n(-c4csc(C)c4)nc-3c2c1` [Ic2 -4] here?
A: Its Ki is 0.3 nM.

Q: How did the Ki turn out when `COc1ccc2[nH]cc3c(=O)n(-c4csc(C)c4)nc-3c2c1` [Ic2 -5, 2-[3-(5-methylthienyl)]-8-methoxy-2,5-dihydro-3H-pyrazolo[4,3-c]quinolin-3-one] was run?
A: The Ki was 0.39 nM.

Q: How did the Ki turn out when `Cc1ccc2[nH]cc3c(=O)n(-c4ccc(C)s4)nc-3c2c1` [Ic1 -6] was run?
A: Its Ki is 0.22 nM.

Q: Which Ki does the source give for `Cc1ccc(-n2nc3c4ccccc4[nH]cc-3c2=O)s1` [Ic1 -1, 2-[2-(5-Methylthienyl)]-2,5-dihydro-3H-pyrazolo[4,3-c]quinolin-3-one] here?
A: Its Ki is 0.35 nM.

Q: `Cc1cc(-n2nc3c4ccccc4[nH]cc-3c2=O)cs1` [Ic2 -2, 2-[3-(5-methylthienyl)]-2,5-dihydro-3H-pyrazolo[4,3-c]quinolin-3-one] was tested. Which Ki did it give?
A: The Ki was 0.45 nM.

tested on: male mice; assay: Inverse agonist activity (oral compound 1 hour before subcutaneous pentylenetetrazol, mice); format: in vivo; details: Mus musculus, 1 hour before s.c. 75 mg/kg pentylenetetrazol (subconvulsive dose), 8-16 male mice a group, Probit method, read-out: ED50 (dose at which 50% of mice died)
Description: Inverse agonist activity was evaluated by the following procedure.
The test compound was administered orally to 8-16 male mice a group, 1 hour before a subcutaneous administration of 75 mg/kg of pentylenetetrazol (a subconvulsive dose). The dose (ED50) at which 50% of mice died, was calculated by the Probit method.

Q: `O=c1c2c[nH]c3ccccc3c-2nn1-c1nccs1` [Control 2, reference compound] was tested. Which ED50 did it give?
A: The ED50 was 87 mg/kg.

Q: With `Cc1cc(-n2nc3c4ccccc4[nH]cc-3c2=O)cs1` [Ic2 -2, 2-[3-(5-methylthienyl)]-2,5-dihydro-3H-pyrazolo[4,3-c]quinolin-3-one] as the compound, how does the ED50 read?
A: Its ED50 is 1.67 mg/kg.
